# Results published in patent US8889670B2, “Heterocyclic compounds which modulate the CB2 receptor” (Boehringer Ingelheim International GmbH, priority 2009, dated 2014).
# Target: T1, human CB2R (Homo sapiens, UniProt P34972)
# T1 construct: host or cells: CHO cells
# Assay: CB2R mediated modulation of cAMP synthesis (forskolin-stimulated cAMP, CHO cells expressing human CB2R)
# Type: cell-based
# Conditions: not given
# Experimental: B. CB2R Mediated Modulation of cAMP Synthesis:
# Compounds of the invention were evaluated for their CB2 agonist or inverse agonistic activity in accordance with the following experimental method.
# CHO cells expressing human CB2R (Euroscreen) were plated at a density of 5000 cells per well in 384 well plates and incubated overnight at 37° C. After removing the media, the cells were treated with test compounds diluted in stimulation buffer containing 1 mM IBMX, 0.25% BSA and 10 uM Forskolin. The assay was incubated for 30 minutes at 37° C. Cells were lysed and the cAMP concentration was measured using DiscoverX-XS cAMP kit, following the manufacturer's protocol. In this setting, agonists will decrease forskolin induced production of cAMP while inverse agonists will further increase forskolin induced production of cAMP. EC50 of agonists were calculated as follows. The maximal amount of cAMP produced by forskolin compared to the level of cAMP inhibited by 1 uM CP55940 is defined as 100%. […] Data was analyzed using a four-parameter logistic model. (Model 205 of XLfit 4.0).
# T1 sequence (P34972 whole entry): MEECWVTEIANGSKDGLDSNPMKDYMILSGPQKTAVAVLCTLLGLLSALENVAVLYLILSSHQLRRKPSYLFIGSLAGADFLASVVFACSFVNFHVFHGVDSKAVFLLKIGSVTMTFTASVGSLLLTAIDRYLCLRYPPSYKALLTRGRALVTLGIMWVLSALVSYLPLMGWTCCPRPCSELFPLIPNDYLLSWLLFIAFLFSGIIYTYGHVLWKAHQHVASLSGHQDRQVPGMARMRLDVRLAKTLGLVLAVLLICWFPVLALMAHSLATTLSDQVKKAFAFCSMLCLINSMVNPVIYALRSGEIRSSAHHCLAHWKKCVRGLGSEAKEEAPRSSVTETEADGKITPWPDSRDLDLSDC
row,Structure (SMILES),EC50
1,CC(C)(C)c1cc(NC(=O)[C@@H]2CCCCN2S(=O)(=O)c2ccc(Cl)cc2)no1 [(S)-1-(4-Chloro-benzenesulfonyl)-piperidine-2-carboxylic acid (5-tert-butyl-isoxazol-3-yl)-amide],21 nM
2,CC(C)(C)c1cc(NC(=O)C2CN(C(=O)c3ccc(C(F)(F)F)cc3)CCO2)no1 (stereo not shown) [4-(4-Trifluoromethyl-benzoyl)-morpholine-2-carboxylic acid (5-tert-butyl-isoxazol-3-yl)-amide],85 nM
3,CC(C)(C)c1cc(NC(=O)C2CCCN(C(=O)c3ccc(C(F)(F)F)cc3)C2)no1 (stereo not shown) [1-(4-Trifluoromethyl-benzoyl)-piperidine-3-carboxylic acid (5-tert-butyl-isoxazol-3-yl)-amide],16 nM
4,"CC(C)(C)c1cc(NC(=O)[C@@H]2CCCCN2c2ncc(C(F)(F)F)cc2Cl)no1 [(S)-3′-Chloro-5′-trifluoromethyl-3,4,5,6-tetrahydro-2H-[1,2′]bipyridinyl-2-carboxylic acid (5-tert-butyl-isoxazol-3-yl)-amide]",0.18 nM
5,"CC(C)(C)c1cc(NC(=O)[C@@H]2CCCCN2C(=O)C2CCS(=O)(=O)C2)no1 (stereo partly drawn) [(S)-1-(1,1-Dioxo-tetrahydro-1λ^6-thiophene-3-carbonyl)-piperidine-2-carboxylic acid (5-tert-butyl-isoxazol-3-yl)-amide]",17 nM
6,CC(C)(C)c1cc(NC(=O)[C@@H]2CCCCN2C(=O)c2cccc(Cl)c2)no1 [(S)-1-(3-Chloro-benzoyl)-piperidine-2-carboxylic acid (5-tert-butyl-isoxazol-3-yl)-amide],44 nM
7,"CC(C)(C)c1cc(NC(=O)[C@H]2CCCN(C(=O)C3CCC(F)(F)CC3)C2)no1 [(S)-1-(4,4-Difluoro-cyclohexanecarbonyl)-piperidine-3-carboxylic acid (5-tert-butyl-isoxazol-3-yl)-amide]",119 nM
8,CC(C)(C)c1cc(NC(=O)C2CCCN(Cc3ccc(Cl)cc3)C2)no1 (stereo not shown) [1-(4-Chloro-benzyl)-piperidine-3-carboxylic acid (5-tert-butyl-isoxazol-3-yl)-amide],2.7 nM
9,"CC(C)(C)c1cc(NC(=O)[C@@H]2CCCCN2C(=O)CC2CCS(=O)(=O)C2)no1 (stereo partly drawn) [(S)-1-[2-(1,1-Dioxo-tetrahydro-1λ^6-thiophen-3-yl)-acetyl]-piperidine-2-carboxylic acid (5-tert-butyl-isoxazol-3-yl)-amide]",7.7 nM
10,"CC(C)(C)c1cc(NC(=O)[C@@H]2CCCCN2Cc2ccc(F)c(F)c2)no1 [(S)-1-(3,4-Difluoro-benzyl)-piperidine-2-carboxylic acid (5-tert-butyl-isoxazol-3-yl)-amide]",0.58 nM
11,"CC(C)(C)c1cc(NC(=O)C2CCCN(C(=O)C3CCC(F)(F)CC3)C2)no1 (stereo not shown) [1-(4,4-Difluoro-cyclohexanecarbonyl)-piperidine-3-carboxylic acid (5-tert-butyl-isoxazol-3-yl)-amide]",23 nM
12,"CC(C)(C)c1cc(NC(=O)[C@@H]2CCCCN2C(=O)C2CCC(F)(F)CC2)on1 [(S)-1-(4,4-Difluoro-cyclohexanecarbonyl)-piperidine-2-carboxylic acid (3-tert-butyl-isoxazol-5-yl)-amide]",1 nM
13,CC(C)(C)c1cc(NC(=O)[C@@H]2CCCCN2C(=O)C2CCCCCC2)no1,8.2 nM
14,CC(C)(C)c1csc(NC(=O)[C@@H]2CCCCN2CC2CCOCC2)n1 [(S)-1-(Tetrahydro-pyran-4-ylmethyl)-piperidine-2-carboxylic acid (4-tert-butyl-thiazol-2-yl)-amide],13 nM
15,CC(C)(C)c1coc(NC(=O)[C@@H]2CCCCN2CC2CCOCC2)n1 [(S)-1-(Tetrahydro-pyran-4-ylmethyl)-piperidine-2-carboxylic acid (4-tert-butyl-oxazol-2-yl)-amide],2.4 nM
16,"CC(C)(C)c1cc(NC(=O)C2CCCN(c3ncc(C(F)(F)F)cc3Cl)C2)no1 (stereo not shown) [3′-Chloro-5′-trifluoromethyl-3,4,5,6-tetrahydro-2H-[1,2′]bipyridinyl-3-carboxylic acid (5-tert-butyl-isoxazol-3-yl)-amide]",113 nM
17,"CC(C)(C)c1cc(NC(=O)[C@@H]2CCCCN2C(=O)CN2CCC(F)(F)CC2)no1 [(S)-1-[2-(4,4-Difluoro-piperidin-1-yl)-acetyl]-piperidine-2-carboxylic acid (5-tert-butyl-isoxazol-3-yl)-amide]",34 nM
18,CC(C)(C)c1cc(NC(=O)[C@@H]2CCCCCN2c2ccc(Cl)cc2)no1 [(S)-1-(4-Chloro-phenyl)-azepane-2-carboxylic acid (5-tert-butyl-isoxazol-3-yl)-amide],0.4 nM

# Same assay, conditions: agonist EC50, inhibition of forskolin-stimulated cAMP synthesis; CHO cells expressing human CB2R; mean; read-out: CB2 CAMP @ EC50 nM (mean)
row,EC50,Structure (SMILES)
1,65 nM,O=C(Nc1nc(C2CCCCC2)cs1)[C@@H]1CCCCN1C1CCOCC1 [(S)-1-(Tetrahydro-pyran-4-yl)-piperidine-2-carboxylic acid (4-cyclohexyl-thiazol-2-yl)-amide]
2,14 nM,"O=C(Nc1nsc(-c2ccccc2)n1)[C@@H]1CCCCN1CC1CCOCC1 [(S)-1-(Tetrahydro-pyran-4-ylmethyl)-piperidine-2-carboxylic acid (5-phenyl-1,2,4-thiadiazol-3-yl)-amide]"
3,0.55 nM,CCc1sc(NC(=O)[C@@H]2CCCCN2CC2CCOCC2)nc1-c1ccccc1 [(S)-1-(Tetrahydro-pyran-4-ylmethyl)-piperidine-2-carboxylic acid (5-ethyl-4-phenyl-thiazol-2-yl)-amide]
4,26 nM,"O=C(Nc1nc(-c2ccc(F)c(F)c2)cs1)[C@@H]1CCCCN1C(=O)N1CCS(=O)(=O)CC1 [(S)-1-(1,1-Dioxo-1λ^6-thiomorpholine-4-carbonyl)-piperidine-2-carboxylic acid [4-(3,4-difluoro-phenyl)-thiazol-2-yl]-amide]"
5,130 nM,"O=C(NCCSCc1c(F)cccc1Cl)[C@@H]1CCCCN1C(=O)N1CCS(=O)(=O)CC1 [(S)-1-(1,1-Dioxo-1λ^6-thiomorpholine-4-carbonyl)-piperidine-2-carboxylic acid [2-(2-chloro-6-fluoro-benzylsulfanyl)-ethyl]-amide]"
6,1.6 nM,"CC(C)(C)c1nnc(NC(=O)[C@@H]2CCCCN2CC2CCOCC2)s1 [(S)-1-(Tetrahydro-pyran-4-ylmethyl)-piperidine-2-carboxylic acid (5-tert-butyl-1,3,4-thiadiazol-2-yl)-amide]"
7,5.2 nM,"CCc1sc(NC(=O)[C@@H]2CCCCN2C(=O)N2CCS(=O)(=O)CC2)nc1-c1ccccc1 [(S)-1-(1,1-Dioxo-1λ^6-thiomorpholine-4-carbonyl)-piperidine-2-carboxylic acid (5-ethyl-4-phenyl-thiazol-2-yl)-amide]"
8,59 nM,"O=C(Nc1nc2c(F)cccc2s1)[C@@H]1CCCCN1C(=O)N1CCS(=O)(=O)CC1 [(S)-1-(1,1-Dioxo-1λ^6-thiomorpholine-4-carbonyl)-piperidine-2-carboxylic acid (4-fluoro-benzothiazol-2-yl)-amide]"

row,Structure (SMILES),EC50
1,CC(C)(C)c1cc(NC(=O)[C@@H]2CCCC(=O)N2c2ccc(Cl)cc2)on1 [(S)-1-(4-Chloro-phenyl)-6-oxo-piperidine-2-carboxylic acid (3-tert-butyl-isoxazol-5-yl)-amide],181 nM
2,"O=C(Nc1ccc(C(F)(F)F)cn1)[C@@H]1CCCCN1C(=O)C1CCC(F)(F)CC1 [(S)-1-(4,4-Difluoro-cyclohexanecarbonyl)-piperidine-2-carboxylic acid (5-trifluoromethyl-pyridin-2-yl)-amide]",282 nM
